Results from patent publication US12433855B2, “Method of inhibiting gram-negative bacterial quorum signalling molecules using the macrocycle pillar[5]arene” (AALTO UNIVERSITY FOUNDATION SR, priority 2018, dated 2025).
Entries after “also recorded” stand apart in the source; their conditions may differ. Blank lines part the entries; values can stand above or below the compound they belong to.

What was measured:
[1] = Binding of HSLs having carbon chains of different lengths
Pseudomonas aeruginosa = experiment: Pyocyanin assay; assay type: cell-based; conditions: for production of pyocyanin: 24 hours of growth, OD695
Text: In testing the functionality of P[5]a as an actual quorum sensing inhibitor a pathogenic Gram-negative bacterium, Pserudomonas aeruginosa, which contains the LasI synthase that produces the 3-oxo-C12 HSL, was used.
P. aeruginosa utilizes multiple quorum sensing systems (Las, Rhl and Pqs). The Las system is at the top of a cascade that leads to the activation of the other quorum sensing systems, and is directly responsible for the production of the green toxin pyocyanin. Pyocyanin is a toxin produced by Pseudomonas aeruginosa, and the production is directly activated by the 3-oxo-C12 HSL. Pyocyanin is responsible for the death of cells in the lung during cystic fibrosis. Thus, the production of this toxin is related directly to the C12 Las AHL signal in a quorum-based response.
Bacterial cells were cultured for 24 hours in Luria Broth (LB) medium with […] added. Then, the culture fluid was separated from the cells and measured at OD695 (this measures the amount of green color).
In a pyocyanin assay, the effect of varying concentrations of a P[5]a (4,9,14,19,24,26,28,30,32,34-Deca[2-(trimethylaminio)ethoxy]hexacyclo[21.2.2.2^3,6.2^8,11.2^13,16.2^18,21]pentatriaconta-1(25),3,5,8,10,13,15,18,20,23,26,28,30,32,34-pentadecaene⋅10bromide, CAS No. 1351445-28-7) on the production of pyocyanin after 24 hours of growth was studied and the results are shown in FIG. 12.

A549 cells [2] = experiment: Viability of A549 cells, trypan blue staining; assay type: cell-based, human; conditions: different concentrations of P[5]a, with vs without
Procedure: (§1) To assess the possible toxicity of P[5]a on the lung cells, two independent viability tests were performed. First, the viability of A549 cells grown in the presence of different concentrations of P[5]a was determined using trypan blue staining. […] Subsequently, the CellTox Green Cytotoxicity Assay (Promega) was carried out for A549 cells grown with and without P[5]a, in the presence or absence of PAO1 P. aeruginosa strain. […] This was not observed for cells grown with the addition of P[5]a in the growth medium.

A549 cells [3] = experiment: CellTox Green Cytotoxicity Assay; assay type: cell-based, human
Procedure: as §1

[4] = system: A549 cells infected with P. aeruginosa; experiment: Gene expression (total RNA) of A549 cells infected with P. aeruginosa; assay type: cell-based, human
Procedure: In order to further study the influence of P[5]a on the eukaryotic cells, total RNA was isolated from A549 cells infected with P. aeruginosa in the presence or absence of 100 nM or 2.5 mM P[5]a. The expression of 46 genes were affected strongly enough to meet our stringent criteria and be considered as differentially expressed during the infection with PAO1.

[5] = Stability and dissolution in water; assay type: physicochemical

- binding to N-acyl-homoserine lactones (AHLs) [1]: found to bind
Compound: OC[C@H]1O[C@@H]2O[C@H]3[C@H](O)[C@@H](O)[C@@H](O[C@H]4[C@H](O)[C@@H](O)[C@@H](O[C@H]5[C@H](O)[C@@H](O)[C@@H](O[C@H]6[C@H](O)[C@@H](O)[C@@H](O[C@H]7[C@H](O)[C@@H](O)[C@@H](O[C@H]8[C@H](O)[C@@H](O)[C@@H](O[C@H]9[C@H](O)[C@@H](O)[C@@H](O[C@H]1[C@H](O)[C@H]2O)O[C@@H]9CO)O[C@@H]8CO)O[C@@H]7CO)O[C@@H]6CO)O[C@@H]5CO)O[C@@H]4CO)O[C@@H]3CO [gamma-cyclodextrin, Gamma-cyclodextrin]

Compound: C[N+](C)(C)CCOc1cc2c(OCC[N+](C)(C)C)cc1Cc1cc(OCC[N+](C)(C)C)c(cc1OCC[N+](C)(C)C)Cc1cc(OCC[N+](C)(C)C)c(cc1OCC[N+](C)(C)C)Cc1cc(OCC[N+](C)(C)C)c(cc1OCC[N+](C)(C)C)Cc1cc(OCC[N+](C)(C)C)c(cc1OCC[N+](C)(C)C)C2.[Br-].[Br-].[Br-].[Br-].[Br-].[Br-].[Br-].[Br-].[Br-].[Br-] [P[5]a, 4,9,14,19,24,26,28,30,32,34-Deca[2-(trimethylaminio)ethoxy]hexacyclo[21.2.2.2^3,6.2^8,11.2^13,16.2^18,21]pentatriaconta-1(25),3,5,8,10,13,15,18,20,23,26,28,30,32,34-pentadecaene⋅10bromide]
- cellular growth (Pseudomonas aeruginosa; P. aeruginosa culture): not affected at all
- production of pyocyanin (Pseudomonas aeruginosa; higher concentrations of P[5]a): complete inhibition; also recorded: completely inhibit toxin production
- production of pyocyanin (Pseudomonas aeruginosa; no or low concentrations of P[5]a): no significant differences
- viability of A549 cells (trypan blue) (A549 cells [2]): no significant difference
- increase in fluorescence (indicator of cell death) (A549 cells [3]; A549 cells grown with P[5]a, absence of PAO1): not observed
- cell death during infection with PAO1 strain (A549 cells [3]; A549 cells infected with PAO1 P. aeruginosa, P[5]a in growth medium): reduction in cell death in a dose dependent manner
- overexpression of differentially expressed genes during infection ([4]; 100 nM or 2.5 mM P[5]a, PAO1 infection): reduced the overexpression of many of the differentially expressed genes
- expression of CXCL1, CXCL8, CCL20 and ICAM1 ([4]; 100 nM or 2.5 mM P[5]a, PAO1 infection, dose-dependent): significantly reduced
- expression of adrenomodullin (ADM) and colony stimulating factor 2 (CSF2) ([4]; P[5]a added to infected A549 culture): further overexpression
- binding to N-acyl-homoserine lactones (AHLs) [1]: found to bind
- selectivity of AHL binding by chain length [1]: selectively bind long-chained N-acyl-homoserine lactones
- dissolution in water [5]: easily dissolved
- stability [5]: very good stability

Compound: Resorcin[4]arene
- binding to N-acyl-homoserine lactones (AHLs) [1]: found to bind

- binding to N-acyl-homoserine lactones (AHLs) [1]: found to bind
Compound: OC[C@H]1O[C@@H]2O[C@H]3[C@H](O)[C@@H](O)[C@@H](O[C@H]4[C@H](O)[C@@H](O)[C@@H](O[C@H]5[C@H](O)[C@@H](O)[C@@H](O[C@H]6[C@H](O)[C@@H](O)[C@@H](O[C@H]7[C@H](O)[C@@H](O)[C@@H](O[C@H]1[C@H](O)[C@H]2O)O[C@@H]7CO)O[C@@H]6CO)O[C@@H]5CO)O[C@@H]4CO)O[C@@H]3CO [alpha-cyclodextrin, Alpha-cyclodextrin]

- binding to N-acyl-homoserine lactones (AHLs) [1]: found to bind
Compound: C1COCCOCCOCCOCCO1 [15-crown-5, 1,4,7,10,13-Pentaoxacyclopentadecane]

- binding to N-acyl-homoserine lactones (AHLs) [1]: found to bind
Compound: O=S(=O)(O)c1cc2c(O)c(c1)Cc1cc(S(=O)(=O)O)cc(c1O)Cc1cc(S(=O)(=O)O)cc(c1O)Cc1cc(S(=O)(=O)O)cc(c1O)C2 [4-sulfocalix[4]arene, 25,26,27,28-Tetrahydroxycalix[4]arene-5,11,17,23-tetrasulfonic acid]

- binding to N-acyl-homoserine lactones (AHLs) [1]: found to bind
Compound: O=C1N2CN3C(=O)N4CN5C(=O)N6CN7C(=O)N8CN9C(=O)N%10CN%11C(=O)N%12CN1C1C2N2CN%13C(=O)N(CN%14C(=O)N(CN%15C(=O)N(CN%16C(=O)N(CN%17C(=O)N(CN1C2=O)C%12C%11%17)C%10C9%16)C8C7%15)C6C5%14)C4C3%13 (stereo not shown) [cucurbit[6]uril, Cucurbit[6]uril hydrate]
